Patent US9980486B2, “Herbicidal quinolines” (Syngenta Participations AG, priority 2014, dated 2018)

Legend:
Assay in all cases: Experiment B1 glasshouse herbicide test, pre- and post-emergence, percentage damage
Type in all cases: in vivo
Details in all cases: evaluated after 13 days
[1] = test system: Amaranthus retoflexus (AMARE)
Experimental: (§1) Seeds of a variety of test species are sown in standard soil in pots (Lolium perenne (LOLPE), Solanum nigrum (SOLNI), Amaranthus retoflexus (AMARE), Setaria faberi (SETFA), Echinochloa crus-galli (ECHCG), Ipomoea hederacea (IPOHE)). After cultivation for one day (pre-emergence) or after 8 days cultivation (post-emergence) under controlled conditions in a glasshouse (at 24/16° C., day/night; 14 hours light; 65% humidity), the plants are sprayed with an aqueous spray solution derived from the formulation of the technical active ingredient in acetone/water (50:50) solution containing 0.5% Tween 20 (polyoxyethelyene sorbitan monolaurate, CAS RN 9005-64-5). […] The test plants are then grown in a glasshouse under controlled conditions in a glasshouse (at 24/16° C., day/night; 14 hours light; 65% humidity) and watered twice daily. After 13 days for pre and post-emergence, the test is evaluated for the percentage damage caused to the plant. The biological activities are shown in the following table on a five point scale (5=80-100%; 4=60-79%; 3=40-59%; 2=20-39%; 1=0-19%).

[2] = test system: Echinochloa crus-galli (ECHCG)
Experimental: as §1

[3] = test system: Ipomoea hederacea (IPOHE)
Experimental: as §1

[4] = test system: Lolium perenne (LOLPE)
Experimental: as §1

[5] = test system: Setaria faberi (SETFA)
Experimental: as §1

[6] = test system: Solanum nigrum (SOLNI)
Experimental: as §1

[7] = POST Application (post-emergence), applied at 250 g/ha
[8] = PRE Application (pre-emergence), applied at 250 g/ha
[9] = POST Application (post-emergence, after 8 days cultivation), 1000 g/h
[10] = PRE Application (pre-emergence, after cultivation for one day), 1000 g/h

Structure (SMILES): Cn1nnnc1NC(=O)c1cc2cccnc2c(-c2ccccc2)c1[S+](C)[O-] (stereo not drawn) [Compound 1.045]
- percentage damage caused to the plant, five point scale, AMARE [1, 7]: 5 (5=80-100%)
- percentage damage caused to the plant, five point scale, AMARE [1, 8]: 4 (4=60-79%)
- percentage damage caused to the plant, five point scale, ECHCG [2, 7]: 5 (5=80-100%)
- percentage damage caused to the plant, five point scale, ECHCG [2, 8]: 4 (4=60-79%)
- percentage damage caused to the plant, five point scale, IPOHE [3, 7]: 5 (5=80-100%)
- percentage damage caused to the plant, five point scale, IPOHE [3, 8]: 2 (2=20-39%)
- percentage damage caused to the plant, five point scale, LOLPE [4, 7]: 3 (3=40-59%)
- percentage damage caused to the plant, five point scale, LOLPE [4, 8]: 1 (1=0-19%)
- percentage damage caused to the plant, five point scale, SETFA [5, 7]: 5 (5=80-100%)
- percentage damage caused to the plant, five point scale, SETFA [5, 8]: 1 (1=0-19%)
- percentage damage caused to the plant, five point scale, SOLNI [6, 7]: 5 (5=80-100%)
- percentage damage caused to the plant, five point scale, SOLNI [6, 8]: 4 (4=60-79%)

Structure (SMILES): Cc1c(C(=O)Nc2nnnn2C)cc2cccnc2c1-c1ccc(F)cc1 [Compound 1.035]
- percentage damage caused to the plant, five point scale, AMARE [1, 9]: 5 (5=80-100%)
- percentage damage caused to the plant, five point scale, AMARE [1, 10]: 5 (5=80-100%)
- percentage damage caused to the plant, five point scale, ECHCG [2, 9]: 5 (5=80-100%)
- percentage damage caused to the plant, five point scale, ECHCG [2, 10]: 5 (5=80-100%)
- percentage damage caused to the plant, five point scale, IPOHE [3, 9]: 5 (5=80-100%)
- percentage damage caused to the plant, five point scale, IPOHE [3, 10]: 5 (5=80-100%)
- percentage damage caused to the plant, five point scale, LOLPE [4, 9]: 4 (4=60-79%)
- percentage damage caused to the plant, five point scale, LOLPE [4, 10]: 5 (5=80-100%)
- percentage damage caused to the plant, five point scale, SETFA [5, 9]: 5 (5=80-100%)
- percentage damage caused to the plant, five point scale, SETFA [5, 10]: 5 (5=80-100%)
- percentage damage caused to the plant, five point scale, SOLNI [6, 9]: 5 (5=80-100%)
- percentage damage caused to the plant, five point scale, SOLNI [6, 10]: 5 (5=80-100%)

Structure (SMILES): CSc1ccc(-c2c(C)c(C(=O)Nc3nnnn3C)cc3cccnc23)cc1 [Compound 1.030, 7-methyl-8-(4-methylsulfanylphenyl)-N-(1-methyltetrazol-5-yl)quinoline-6-carboxamide]
- percentage damage caused to the plant, five point scale, AMARE [1, 9]: 5 (5=80-100%)
- percentage damage caused to the plant, five point scale, AMARE [1, 10]: 5 (5=80-100%)
- percentage damage caused to the plant, five point scale, ECHCG [2, 9]: 5 (5=80-100%)
- percentage damage caused to the plant, five point scale, ECHCG [2, 10]: 5 (5=80-100%)
- percentage damage caused to the plant, five point scale, IPOHE [3, 9]: 5 (5=80-100%)
- percentage damage caused to the plant, five point scale, IPOHE [3, 10]: 4 (4=60-79%)
- percentage damage caused to the plant, five point scale, LOLPE [4, 9]: 4 (4=60-79%)
- percentage damage caused to the plant, five point scale, LOLPE [4, 10]: 4 (4=60-79%)
- percentage damage caused to the plant, five point scale, SETFA [5, 9]: 5 (5=80-100%)
- percentage damage caused to the plant, five point scale, SETFA [5, 10]: 5 (5=80-100%)
- percentage damage caused to the plant, five point scale, SOLNI [6, 9]: 5 (5=80-100%)
- percentage damage caused to the plant, five point scale, SOLNI [6, 10]: 5 (5=80-100%)

Structure (SMILES): Cn1nnnc1NC(=O)c1cc2cccnc2c(-c2ccccc2)c1Cl [Compound 1.011, 7-chloro-N-(1-methyltetrazol-5-yl)-8-phenyl-quinoline-6-carboxamide]
- percentage damage caused to the plant, five point scale, AMARE [1, 9]: 5 (5=80-100%)
- percentage damage caused to the plant, five point scale, AMARE [1, 10]: 5 (5=80-100%)
- percentage damage caused to the plant, five point scale, ECHCG [2, 9]: 5 (5=80-100%)
- percentage damage caused to the plant, five point scale, ECHCG [2, 10]: 5 (5=80-100%)
- percentage damage caused to the plant, five point scale, IPOHE [3, 9]: 5 (5=80-100%)
- percentage damage caused to the plant, five point scale, IPOHE [3, 10]: 5 (5=80-100%)
- percentage damage caused to the plant, five point scale, LOLPE [4, 9]: 5 (5=80-100%)
- percentage damage caused to the plant, five point scale, LOLPE [4, 10]: 5 (5=80-100%)
- percentage damage caused to the plant, five point scale, SETFA [5, 9]: 5 (5=80-100%)
- percentage damage caused to the plant, five point scale, SETFA [5, 10]: 5 (5=80-100%)
- percentage damage caused to the plant, five point scale, SOLNI [6, 9]: 5 (5=80-100%)
- percentage damage caused to the plant, five point scale, SOLNI [6, 10]: 5 (5=80-100%)
